Laboratory results as given in patent US6903235B2, “Pharmaceutical-grade ferric citrate” (Panion & BF Biotech Inc., priority 2003, dated 2005).

Assay: Stability of the product at 40° C. / 75% RH (ferric citrate assay and ferric assay by titration)
Assay type: physicochemical
Details: Temperature 40° C. ± 2° C., Humidity 75% ± 5% RH
Procedure: 1.1.3. Stability of the Product
0.5 g of ferric citrate, accurately weighed, in 100 mL of water and 5 mL of hydrochloric acid were added in a flask on a water bath until dissolved. 3 g of potassium iodide and 5 mL of hydrochloric acid were added to the flask to form a mixture, and a stopper was inserted in the flask. The mixture was allowed to stand for 15 minutes, and the librated iodine was titrated with 0.1 N sodium thiosulfate solution using a starch test solution as an indicator. A blank test was performed with the same quantities of reagents and in the same manner, and corrections were made if necessary. Each milliliter of 0.1 N sodium thiosulfate is equivalent to 24.496 mg of FeC6H5O7 and each milliliter of 0.1 N sodium thiosulfate is equivalent to 5.585 mg of Iron(III).

## ferric citrate [FeC6H5O7 product]
1st month
  Ferric assay: 17.68%
  Ferric citrate assay: 99.65%
2nd month
  Ferric assay: 17.66%
  Ferric citrate assay: 99.58%
3rd month
  Ferric assay: 17.70%
  Ferric citrate assay: 99.79%
6th month
  Ferric assay: 17.81%
  Ferric citrate assay: 100.37%
Initial
  Ferric assay: 17.69%
  Ferric citrate assay: 99.70%
